# Measured values reported in patent US9681669B2 (priority 2012, dated 2017).
# Like-named read-outs stand apart in the source and are kept apart here.
# What was measured:
# P. infestans = type: in vivo, Phytophthora infestans; details: BABA 0.3 g/l; Desiree, Bintje, Ovatio; 6 dpi
# [1] = test system: Pathogenesis-related protein (PR-1); type: in vivo, Solanum tuberosum; details: BABA 0.3 g/l; all three genotypes
smiles,measurement,setting,value
"CC(N)CC(=O)O (stereo not drawn) [BABA, β-aminobutyric acid]","effect on lesion size, SBE compared with BABA-treated plants",P. infestans,not significantly different
same,PR-1 protein induction compared with SBE,[1],stronger
same,necrotic dots or lesions on treated plants,"Bintje, BABA treatment (0.3 g/l)",no such lesions were observed
same,necrotic dots or lesions on treated plants,"Desiree, two days after BABA treatment (0.3 g/l)",Small necrotic dots or lesions
